Assay results from paper PMC3265452 (PLoS Neglected Tropical Diseases, 2012).
Where a name gives a salt, the structure may show the parent alone. Read-outs that look alike come from different tables or passages of the source.

Target: AaDOP2 (Aedes aegypti, UniProt H6D5H2)
Experiment: AaDOP2 antagonist screen of the LOPAC1280 library (HEK-CRELuc-Aadop2 cells, luminescence)
Type: cell-based
[1] = 10 µM compound, 300 nM dopamine, 2 hr, hit = compound effect <20

Chain of AaDOP2 (H6D5H2 1-476): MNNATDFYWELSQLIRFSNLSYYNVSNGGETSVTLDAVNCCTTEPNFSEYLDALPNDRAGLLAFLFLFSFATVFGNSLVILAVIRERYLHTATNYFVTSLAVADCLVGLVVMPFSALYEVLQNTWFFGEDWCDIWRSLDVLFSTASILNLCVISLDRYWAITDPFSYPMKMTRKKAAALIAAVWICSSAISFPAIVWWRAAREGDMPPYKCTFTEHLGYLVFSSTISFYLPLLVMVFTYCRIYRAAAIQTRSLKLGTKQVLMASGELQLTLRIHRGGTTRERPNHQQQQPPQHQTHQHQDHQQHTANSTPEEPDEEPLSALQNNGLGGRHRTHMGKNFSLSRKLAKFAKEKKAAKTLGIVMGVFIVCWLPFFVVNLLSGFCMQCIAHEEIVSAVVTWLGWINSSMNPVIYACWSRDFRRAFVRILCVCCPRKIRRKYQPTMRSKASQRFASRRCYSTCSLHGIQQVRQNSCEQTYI

Compound | Compound effect (percent receptor signaling in presence of test compound, relative lux units relative to the SCH23390 control) | also measured
COc1ccccc1OCC(O)CN1CCN(CC(=O)Nc2c(C)cccc2C)CC1 (centres unmarked) [Compound 1051, Ranolazine dihydrochloride] | 100 | 
COc1ccc(C2CNC(=O)C2)cc1OC1CCCC1 (centres unmarked) [Compound 1052, Rolipram] | 118 | 
C[C@@H](CN1CCC(Cc2ccccc2)CC1)[C@@H](O)c1ccc(O)cc1.Cl [Compound 1053, Ro 25-6981 hydrochloride] |  | Compound effect (percent receptor signaling in presence of test compound, relative lux units relative to the SCH23390 control) [1]: 70%
CC(C)C[C@H](NP(=O)([O-])O[C@H]1O[C@H](C)[C@@H](O)[C@H](O)[C@@H]1O)C(=O)N[C@@H](Cc1c[nH]c2ccccc12)C(=O)[O-].[Na+].[Na+] [Compound 1054, Phosphoramidon disodium] |  | Compound effect (percent receptor signaling in presence of test compound, relative lux units relative to the SCH23390 control) [1]: 104%
CC[C@H](CO)Nc1nc(NCc2ccccc2)c2ncn(C(C)C)c2n1 [Compound 1055, Roscovitine] | 28 | 
C=C(C)[C@H]1Cc2c(ccc3c2O[C@@H]2COc4cc(OC)c(OC)cc4[C@@H]2C3=O)O1 [Compound 1056, Rotenone] | 41 | 
NC(=O)c1ccc(OCC(O)CN2CC=C(c3ccc(F)cc3)CC2)cc1 (centres unmarked) [Compound 1057, Ro 8-4304] | 115 | 
COC1(C2=NCCN2)COc2ccccc2O1.Cl (centres unmarked) [Compound 1058, RX 821002 hydrochloride] |  | Compound effect (percent receptor signaling in presence of test compound, relative lux units relative to the SCH23390 control) [1]: 121%
NC(=O)c1ncn([C@@H]2O[C@H](CO)[C@@H](O)[C@H]2O)n1 [Compound 1059, Ribavirin] | 119 | 
CNC(=C[N+](=O)[O-])NCCSCc1ccc(CN(C)C)o1 [Compound 1060, Ranitidine hydrochloride] | 106 | 
Cc1nc2sccn2c(=O)c1CCN1CCC(=C(c2ccc(F)cc2)c2ccc(F)cc2)CC1 [Compound 1061, Ritanserin] | 18 | inhibition at 10 µM (read-out: % of the SCH23390 effect (percent inhibition of receptor response relative to the SCH23390 control)): 83%
COC(=O)[C@H]1[C@H]2C[C@H]3c4[nH]c5ccccc5c4CCN3C[C@H]2CC[C@@H]1O [Compound 1062, Rauwolscine hydrochloride] | 87 | 
O=C(c1cc(O)c(O)c([N+](=O)[O-])c1)c1ccccc1F [Compound 1065, Ro 41-0960] | 88 | 
Nc1c(S(=O)(=O)O)cc(Nc2ccc(Nc3nc(Cl)nc(Nc4cccc(S(=O)(=O)O)c4)n3)c(S(=O)(=O)O)c2)c2c1C(=O)c1ccccc1C2=O [Compound 1066, Reactive Blue 2] | 93 | 
CC(C)COC(=O)OCN1C(=O)CN(CCN2CC(=O)N(COC(=O)OCC(C)C)C(=O)C2)CC1=O [Compound 1070, Sobuzoxane] | 96 | 
C1COC(NC(C2CC2)C2CC2)=N1 [Compound 1071, Rilmenidine hemifumarate] | 114 | 
COc1ccc(CCNC[C@H](O)c2ccc(O)cc2)cc1OC [Compound 1072, R(-)-Denopamine] |  | Compound effect (percent receptor signaling in presence of test compound, relative lux units relative to the SCH23390 control) [1]: 107%
CNc1cc(NS(=O)(=O)c2ccc(N)cc2)nc(NC)n1.Cl.Cl [Compound 1073, Ro 04-6790 dihydrochloride] |  | Compound effect (percent receptor signaling in presence of test compound, relative lux units relative to the SCH23390 control) [1]: 135%
COc1cccc(NC(=O)/C=C/c2ccc(Cl)cc2)c1 [Compound 1075, SB-366791] | 105 | 
Nc1ccc(S(=O)(=O)Nc2ccnn2-c2ccccc2)cc1 [Compound 1078, Sulfaphenazole] | 112 | 
CC1=C(CC(=O)O)c2cc(F)ccc2/C1=C\c1ccc(S(C)(=O)=O)cc1 [Compound 1080, Sulindac sulfone] |  | Compound effect (percent receptor signaling in presence of test compound, relative lux units relative to the SCH23390 control) [1]: 122%
CN1CCc2cccc(Cl)c2CC1 [Compound 1082, SKF 86466] | 37 | 
Cl.NC1CCN(c2cccc(Cl)n2)CC1 [Compound 1083, SR 57227A] | 100 | 
Cl.NNC(N)=O [Compound 1086, Semicarbazide hydrochloride] | 107 | 
NCCCCNCCCN [Compound 1089, Spermidine trihydrochloride] | 104 | 
C=CCN1C[C@H](C)N([C@H](c2ccc(C(=O)N(CC)CC)cc2)c2cccc(OC)c2)C[C@H]1C [Compound 1090, SNC80] | 94 | 

Compound | Compound effect (percent receptor signaling in presence of test compound, relative lux units relative to the SCH23390 control) | also measured
Br.Cc1cccc(C2CN(C)CCc3c2cc(O)c(O)c3Cl)c1 (centres unmarked) [Compound 1091, SKF 83959 hydrobromide] | 50 | 
NCCCNCCCCNCCCN [Compound 1092, Spermine tetrahydrochloride] | 88 | 
Br.CN1CCc2cc(O)c(O)cc2C(c2ccccc2)C1 (centres unmarked) [Compound 1093, SKF 75670 hydrobromide] |  | Compound effect (percent receptor signaling in presence of test compound, relative lux units relative to the SCH23390 control) [1]: 39%
CC(=O)NNC(=O)N1Cc2ccccc2Oc2ccc(Cl)cc21 [Compound 1094, SC 19220] | 99 | 
Br.Oc1ccc(C2CNCc3sccc32)cc1O (centres unmarked) [Compound 1095, SKF 89626] | 89 | 
CCCCN1CCC(COC(=O)c2cc(Cl)c(N)c3c2OCCO3)CC1.Cl [Compound 1097, SB 204070 hydrochloride] |  | Compound effect (percent receptor signaling in presence of test compound, relative lux units relative to the SCH23390 control) [1]: 122%
CCCCCCCC/C=C\CCCCCCCC(=O)NCCc1ccc(O)c(O)c1 [Compound 1098, N-Oleoyldopamine] |  | Compound effect (percent receptor signaling in presence of test compound, relative lux units relative to the SCH23390 control) [1]: 122%
CC(=O)S[C@@H]1CC2=CC(=O)CC[C@]2(C)[C@H]2CC[C@@]3(C)[C@@H](CC[C@@]34CCC(=O)O4)[C@H]12 [Compound 1099, Spironolactone] | 84 | 
Br.CN=c1nc(-c2ccccc2)n(-c2ccccc2)s1 [Compound 1100, SCH-202676 hydrobromide] |  | Compound effect (percent receptor signaling in presence of test compound, relative lux units relative to the SCH23390 control) [1]: 102%
N[C@H](CO)C(=O)O [Compound 1101, D-Serine] | 100 | 
CC(C)(C)NCC(O)c1ccc(O)c(CO)c1.CC(C)(C)NCC(O)c1ccc(O)c(CO)c1.O=S(=O)(O)O (centres unmarked) [Compound 1102, Albuterol hemisulfate] |  | Compound effect (percent receptor signaling in presence of test compound, relative lux units relative to the SCH23390 control) [1]: 106%
C[n+]1cc2c3c(ccc2c2ccc4cc5c(cc4c21)OCO5)OCO3 [Compound 1103, Sanguinarine chloride] | 75 | 
O=C(O)CCC(=O)N1CCC[C@H]1C(=O)O [Compound 1104, N-Succinyl-L-proline] |  | Compound effect (percent receptor signaling in presence of test compound, relative lux units relative to the SCH23390 control) [1]: 111%
CCCCCCCCCCCCC/C=C/[C@@H](O)[C@@H](N)CO [Compound 1105, Sphingosine] | 106 | 
CC1CCN(CC[C@H]2CCCN2S(=O)(=O)c2cccc(O)c2)CC1.Cl [Compound 1106, SB 269970 hydrochloride] | 98 | 
O=C(CCCN1CCC2(CC1)C(=O)NCN2c1ccccc1)c1ccc(F)cc1 [Compound 1107, Spiperone hydrochloride] | 29 | 
O=C(O)c1ccccc1Nc1cccc(OCc2ccc3ccccc3n2)c1 [Compound 1108, SR 2640] | 91 | 
CCN1CCC[C@H]1CNC(=O)c1cc(S(N)(=O)=O)ccc1OC [Compound 1109, (-)-Sulpiride] | 87 | 
COc1ccc(CCCOC(Cn2ccnc2)c2ccc(OC)cc2)cc1 (centres unmarked) [Compound 1110, SKF 96365] | 68 | 
CC#CCOC(=O)c1c(C)nc2sc3c(c2c1N)CCC(O)C3 (centres unmarked) [Compound 1112, SB 205384] | 81 | 
CCCCCCCCCCCCCCCCCCNC(=O)OCC(COP(=O)([O-])OCC[n+]1ccsc1)OC (centres unmarked) [Compound 1114, CV-3988] | 101 | 
CC1=C(CC(=O)O)c2cc(F)ccc2/C1=C\c1ccc([S+](C)[O-])cc1 (centres unmarked) [Compound 1115, Sulindac] | 107 | 
C[N+](C)(C)CCOC(=O)CCC(=O)OCC[N+](C)(C)C [Compound 1116, Succinylcholine chloride] | 94 | 
CC(C)(C)NCC(O)c1ccc(O)c(CO)c1 (centres unmarked) [Compound 1117, Salbutamol] | 107 | 
OCc1cc(C(O)CNCCCCCCOCCCCc2ccccc2)ccc1O (centres unmarked) [Compound 1118, Salmeterol] | 104 | 
C[N+]1(C)[C@@H]2C[C@@H](OC(=O)[C@H](CO)c3ccccc3)C[C@H]1[C@@H]1O[C@@H]12 [Compound 1120, (-)-Scopolamine methyl bromide] | 114 | 
